Ki data for 50 compounds are collected here from EP4631938A1, “NITROGEN-CONTAINING HETEROCYCLE WITH SEROTONIN RECEPTOR-BINDING ACTIVITY AND CARBOCYCLIC DERIVATIVE” (Shionogi & Co., Ltd, priority 2022, dated 2024).

The target in assay [1] is T1, human recombinant 5-HT2A receptor (Homo sapiens, UniProt P28223).
T1 construct: expressed in transfected cells; host or cells: Jump-In HEK cells (membrane preparation)
Kind of assay: Test Example 1-2: 5-HT2A receptor binding inhibition test ([3H]-Ketanserin; non-specific ligand Ketanserin). To be noted: [3H]-Ketanserin; non-specific binding with 500 µmol/L Ketanserin; room temperature (25°C), 1.5 hours; read-out: h 5-HT2A Ki. In a few lines: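 Ki values were derived from dose-response inhibition of [3H]-ketanserin binding; nonspecific binding was set with 500 µmol/L ketanserin, and Kd was set for each membrane lot from Scatchard saturation plots. Incubation lasted 1.5 h at room temperature (25 °C). Bound radioligand was harvested on Tris-HCl (pH 7.4)-presoaked filters and counted.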

The target of assay [2] is T2, human recombinant 5-HT2C receptor (Homo sapiens, UniProt P28335).
T2 construct: expressed in transfected cells; host or cells: Jump-In HEK cells (membrane preparation)
T2 sequence (P28335 33-458): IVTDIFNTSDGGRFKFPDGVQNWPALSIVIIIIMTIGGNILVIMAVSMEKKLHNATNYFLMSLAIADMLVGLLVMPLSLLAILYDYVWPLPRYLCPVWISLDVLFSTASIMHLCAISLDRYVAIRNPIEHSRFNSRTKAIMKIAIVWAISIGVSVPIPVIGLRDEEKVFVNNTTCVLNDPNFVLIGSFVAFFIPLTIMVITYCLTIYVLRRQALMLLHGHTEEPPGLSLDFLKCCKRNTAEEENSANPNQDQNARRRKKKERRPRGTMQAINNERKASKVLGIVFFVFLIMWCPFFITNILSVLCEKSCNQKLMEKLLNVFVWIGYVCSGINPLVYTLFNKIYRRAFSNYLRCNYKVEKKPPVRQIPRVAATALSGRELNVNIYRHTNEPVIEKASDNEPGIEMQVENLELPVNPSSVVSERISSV
Kind of assay: Test Example 2: 5-HT2C receptor binding inhibition test ([3H]-Mesulergine; non-specific ligand Serotonin HCl). To be noted: human serotonin 5-HT2C receptor binding activity. The gist of the method:
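Ki values come from dose-response curves of [3H]-mesulergine displacement from human 5-HT2C membranes after 2 h at 37°C, scored by scintillation counting of filter-bound radioactivity. Serotonin HCl (500 µmol/L) set non-specific binding; Kd per membrane lot was taken from Scatchard plots.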

T1 sequence (P28223 whole entry): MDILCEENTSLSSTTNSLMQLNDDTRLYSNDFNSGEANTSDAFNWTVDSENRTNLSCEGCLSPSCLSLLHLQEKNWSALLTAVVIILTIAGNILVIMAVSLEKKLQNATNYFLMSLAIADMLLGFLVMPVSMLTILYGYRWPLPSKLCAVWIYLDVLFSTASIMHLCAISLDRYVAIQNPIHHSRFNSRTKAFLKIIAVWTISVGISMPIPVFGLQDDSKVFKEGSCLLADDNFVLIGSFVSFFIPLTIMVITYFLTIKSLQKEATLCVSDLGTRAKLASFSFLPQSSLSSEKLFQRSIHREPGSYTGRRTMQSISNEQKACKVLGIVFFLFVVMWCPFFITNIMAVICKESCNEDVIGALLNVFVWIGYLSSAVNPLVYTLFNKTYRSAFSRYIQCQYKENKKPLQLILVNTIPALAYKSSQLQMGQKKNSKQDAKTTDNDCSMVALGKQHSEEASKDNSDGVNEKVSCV

The term Ki denotes a measure of affinity in units of concentration, obtained from inhibition or displacement. With `Cn1ncc(Br)c1-c1nc(Nc2ccc(C(F)(F)F)nc2)c(F)cc1OCCO` [Compound I-290], the inhibition constant Ki in assay [1] worked out at 0.438 nM; in assay [2], 17.6 nM.
In the same order, the values of `Cn1ncc(Br)c1-c1cc(Nc2nc3ccccc3o2)ncc1OCCO` [Compound I-291] are 0.423 nM and 16.4 nM.
As for `Cc1cnn(C)c1-c1cc(Nc2ncc(OC(F)(F)F)cc2F)ncc1OCCO` [Compound I-292], the Ki in assay [1] is 0.385 nM; in assay [2], 2.4 nM.
The like results for `Cc1cnn(C)c1-c1cc(Nc2ccc(OC(F)(F)F)cn2)ncc1OCCO` [Compound I-293] were, in that order, 0.259 nM and 3.67 nM.
The like results for `Cn1ncc(Br)c1-c1nc(Nc2ccc(OC(F)F)cn2)c(F)cc1OCCO` [Compound I-294] were, in that order, 0.395 nM and 2.37 nM.
The like results for `Cc1nc(C)c(-c2cc(Nc3ccc(OC(F)(F)F)cn3)ncc2OCCO)c(C)n1` [Compound I-295] were, in that order, 0.851 nM and 7.58 nM.
Turning to `Cn1ncc(Br)c1-c1cc(Nc2ncc(OC(F)(F)F)cn2)ncc1OCCO` [Compound I-296], the inhibition constant (Ki) in assay [1] was determined as 0.349 nM; in assay [2], 3.02 nM.
The like results for `Cc1nc(C)c(-c2cc(Nc3ccc(C4(C(F)(F)F)CC4)cn3)ncc2OCCO)c(C)n1` [Compound I-297] were, in that order, 2.07 nM and 4.37 nM.
The like results for `Cc1nc(C)c(-c2cc(Nc3ccc(-c4ccccc4)cn3)ncc2OCCO)c(C)n1` [Compound I-298] were, in that order, 0.303 nM and 3.15 nM.
With `Cn1ncc(Br)c1-c1cc(Nc2ncc(OC(F)F)cc2F)ncc1OCCO` [Compound I-299], the Ki in assay [1] was determined as 0.271 nM; in assay [2] it was 0.352 nM.
The like results for `Cc1nc(C)c(-c2cc(Nc3ncc(OC(F)(F)F)cc3F)ncc2OCCO)c(C)n1` [Compound I-300] were, in that order, 1.33 nM and 7.17 nM.
The like results for `Cn1ncc(Br)c1-c1cc(Nc2ccc(OC(C)(F)F)cn2)ncc1OCCO` [Compound I-301] were, in that order, 0.189 nM and 1.38 nM.
`Cc1nc(C)c(-c2cc(Nc3cc(OC(F)F)c(Cl)cn3)ncc2OCCO)c(C)n1` [Compound I-302]: the Ki in assay [1] was 1.08 nM; in assay [2] it was 6.21 nM.
In the same order, the values of `Cc1nc(C)c(-c2cc(Nc3ccc(-c4ccc(C(F)(F)F)cc4)cn3)ncc2OCCO)c(C)n1` [Compound I-303] are 0.379 nM and 0.278 nM.
The like results for `Cn1ncc(Cl)c1-c1cc(Nc2ncc(OC(F)F)cc2F)ncc1OCCO` [Compound I-304] were, in that order, 0.169 nM and 0.644 nM.
In the same order, the values of `Cn1ncc(Cl)c1-c1cc(Nc2ncc(OC(F)(F)F)cc2F)ncc1OCCO` [Compound I-305] are 0.188 nM and 0.585 nM.
Consider `Cc1nc(C)c(-c2cc(Nc3ncc(C(F)(F)F)cc3F)ncc2OCCO)c(C)n1` [Compound I-306], for which the Ki was found to be 1.27 nM in assay [1] and 5.67 nM in assay [2].
The like results for `Cn1ncc(Br)c1-c1cc(Nc2ccc(OCC(F)(F)F)cn2)ncc1OCCO` [Compound I-307] were, in that order, 0.221 nM and 0.715 nM.
The like results for `Cc1nc(C)c(-c2cc(Nc3ccc(Oc4ccc(F)cc4)cn3)ncc2OCCO)c(C)n1` [Compound I-308] were, in that order, 0.575 nM and 9.45 nM.
For `Cc1nc(C)c(-c2cc(Nc3ccc(-c4ccc(F)cc4)cn3)ncc2OCCO)c(C)n1` [Compound I-309], the Ki in assay [1] is 0.247 nM; in assay [2], 1.37 nM.
Turning to `Cc1nc(C)c(-c2cc(Nc3ccc(-c4ccc(Cl)cc4)cn3)ncc2OCCO)c(C)n1` [Compound I-310], the Ki in assay [1] amounted to 0.194 nM; in assay [2] it was 0.608 nM.
In the same order, the values of `Cn1ncc(Cl)c1-c1cc(Nc2ncc(C(F)(F)F)cn2)ncc1OCCO` [Compound I-311] are 0.432 nM and 6.41 nM.
For `Cn1ncc(Cl)c1-c1cc(Nc2ncc(OC(F)(F)F)cn2)ncc1OCCO` [Compound I-312], the inhibition constant (Ki) in assay [1] was 0.252 nM; in assay [2], 4.82 nM.
The like results for `Cn1ncc(Cl)c1-c1cc(Nc2ccc(OCC(F)(F)F)cn2)ncc1OCCO` [Compound I-313] were, in that order, 0.198 nM and 1.38 nM.
For the compound `Cc1nc(C)c(-c2cc(Nc3ccc(-c4ccc(C(F)(F)F)cn4)cn3)ncc2OCCO)c(C)n1` [Compound I-314], the inhibition constant Ki in assay [1] amounted to 0.902 nM; in assay [2], 3.68 nM.
The like results for `Cc1nc(C)c(-c2cc(Nc3ccc(-c4ccc(C(F)(F)F)nc4)cn3)ncc2OCCO)c(C)n1` [Compound I-315] were, in that order, 1.21 nM and 1.05 nM.
With `Cc1nc(C)c(-c2cc(Nc3ncc(-c4ccc(F)cc4)cc3F)ncc2OCCO)c(C)n1` [Compound I-316], the values for the inhibition constant (Ki) in assay [1] and in assay [2] were 0.506 nM and 0.864 nM, respectively.
In the same order, the values of `Cc1nc(C)c(-c2cc(Nc3ccc(-c4ccc(F)cc4)cn3)ncc2O[C@H](C)CO)c(C)n1` [Compound I-317] are 0.453 nM and 6.92 nM.
In the case of `Cc1nc(C)c(-c2cc(Nc3ncc(-c4ccc(F)cc4)cc3C)ncc2OCCO)c(C)n1` [Compound I-318], the results for the inhibitory constant (Ki) in assay [1] and in assay [2] were 0.575 nM and 1.04 nM, respectively.
Consider `Cc1nc(C)c(-c2cc(Nc3ncc(-c4ccc(C(F)(F)F)cc4)cn3)ncc2OCCO)c(C)n1` [Compound I-319], for which the values for the Ki in assay [1] and in assay [2] were 0.65 nM and 2.02 nM, respectively.
As for `Cn1ncc(Cl)c1-c1cc(Nc2ccc(OCC(F)F)cn2)ncc1OCCO` [Compound I-320], the inhibition constant Ki came to 0.297 nM in assay [1] and 7.91 nM in assay [2].
Take `Cn1ncc(Cl)c1-c1cc(Nc2ncc(OCC(F)F)cc2F)ncc1OCCO` [Compound I-321]: the Ki was determined as 0.305 nM in assay [1] and 3.63 nM in assay [2].
For `Cn1ncc(Cl)c1-c1cc(Nc2ncc(OCC(F)(F)F)cc2F)ncc1OCCO` [Compound I-322], the inhibition constant (Ki) in assay [1] is 0.414 nM; in assay [2], 1.3 nM.
The like results for `COCc1nc(C)c(-c2cc(Nc3ncc(Br)cc3Cl)ncc2OCCO)c(C)n1` [Compound I-323] were, in that order, 2.14 nM and 2.81 nM.
The like results for `COCc1nc(C)c(-c2cc(Nc3ccc(OCc4ccccc4)cn3)ncc2OCCO)c(C)n1` [Compound I-324] were, in that order, 0.421 nM and 8.52 nM.
The like results for `COCc1nc(C)c(-c2cc(Nc3ncc(-n4ccc(C(F)(F)F)n4)cc3Cl)ncc2OCCO)c(C)n1` [Compound I-325] were, in that order, 1.6 nM and 1.17 nM.
Regarding `COCc1nc(C)c(-c2cc(Nc3ncc(-c4ccn(C(F)F)n4)cc3Cl)ncc2OCCO)c(C)n1` [Compound I-326], the Ki amounted to 6.26 nM in assay [1] and 7.23 nM in assay [2].
In the same order, the values of `COCc1nc(C)c(-c2cc(Nc3ncc(-n4cc(C(F)F)cn4)cc3Cl)ncc2OCCO)c(C)n1` [Compound I-327] are 2.4 nM and 2.69 nM.
On to `COCc1nc(C)c(-c2cc(Nc3ncc(-c4nc(C(F)(F)F)cs4)cc3Cl)ncc2OCCO)c(C)n1` [Compound I-328], for which the Ki in assay [1] came out at 1.1 nM; in assay [2], 0.499 nM.
As to `COCc1nc(C)c(-c2cc(Nc3ncc(-c4ncc(C(F)(F)F)s4)cc3Cl)ncc2OCCO)c(C)n1` [Compound I-329], the inhibitory constant (Ki) in assay [1] was 0.896 nM; in assay [2] it was 0.282 nM.
In the same order, the values of `COCc1nc(C)c(-c2cc(Nc3ncc(-n4ccc(Cl)n4)cc3Cl)ncc2OCCO)c(C)n1` [Compound I-330] are 1.74 nM and 1.78 nM.
The like results for `CCc1coc(-c2cnc(Nc3cc(-c4c(C)nc(COC)nc4C)c(OCCO)cn3)c(Cl)c2)n1` [Compound I-331] were, in that order, 1.91 nM and 1.66 nM.
The like results for `COCc1nc(C)c(-c2cc(Nc3ncc(OC4CC(F)(F)C4)cc3Cl)ncc2OCCO)c(C)n1` [Compound I-332] were, in that order, 5.58 nM and 3.12 nM.
On to `COCc1nc(C)c(-c2cc(Nc3ncc(OCC(F)(F)C(F)F)cc3Cl)ncc2OCCO)c(C)n1` [Compound I-333], for which the inhibitory constant (Ki) in assay [1] was found to be 9.02 nM; in assay [2], 4.19 nM.
The like results for `COCc1nc(C)c(-c2nc(Nc3ccc(C(F)(F)F)cn3)c(F)cc2OCCO)c(C)n1` [Compound I-334] were, in that order, 3.49 nM and 9.69 nM.
Regarding `COCc1nc(C)c(-c2cc(Nc3ncc(-c4ncc(C)s4)cc3Cl)ncc2OCCO)c(C)n1` [Compound I-335], the Ki was 1.18 nM in assay [1] and 1.87 nM in assay [2].
In the same order, the values of `Cn1ncc(Br)c1-c1nc(Nc2ccc(C(F)(F)F)cc2)ncc1OCCO` [Compound I-336] are 0.226 nM and 0.748 nM.
In the same order, the values of `Cn1ncc(Br)c1-c1nc(Nc2ccc(C(F)(F)F)cn2)ncc1OCCO` [Compound I-337] are 0.313 nM and 7.18 nM.
In the same order, the values of `Cn1ncc(Br)c1-c1nc(Nc2ccc(C(F)(F)F)cc2F)ncc1OCCO` [Compound I-338] are 0.223 nM and 0.765 nM.
Take `Cn1ncc(Br)c1-c1nc(Nc2ccc(Cl)cc2)ncc1OCCO` [Compound I-339]: the inhibition constant Ki in assay [1] was 0.217 nM; in assay [2], 2.52 nM.
